These results are taken from patent publication US10851108B2, “Substituted bicyclic heterocyclic compounds” (BRISTOL-MYERS SQUIBB COMPANY, priority 2016, dated 2020).

Chain of hROMK (human Kir1.1) (P48048 whole entry): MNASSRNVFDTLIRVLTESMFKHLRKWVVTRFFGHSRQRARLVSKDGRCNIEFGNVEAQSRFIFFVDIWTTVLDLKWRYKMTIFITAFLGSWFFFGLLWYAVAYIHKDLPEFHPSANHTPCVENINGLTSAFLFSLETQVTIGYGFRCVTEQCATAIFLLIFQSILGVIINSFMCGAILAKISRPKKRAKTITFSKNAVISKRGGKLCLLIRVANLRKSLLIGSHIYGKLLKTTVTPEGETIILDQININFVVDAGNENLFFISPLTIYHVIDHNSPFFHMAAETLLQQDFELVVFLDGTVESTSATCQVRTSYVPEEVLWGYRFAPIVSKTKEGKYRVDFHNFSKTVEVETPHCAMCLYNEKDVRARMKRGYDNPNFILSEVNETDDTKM

The target in this experiment is hROMK (human Kir1.1) (Homo sapiens (Human), UniProt P48048). In words: Thallium Flux Assay. The experiment is classed as cell-based. Particulars: CHO T-Rex hROMK stable cell line, 10-point concentration response; read-out: hROMK Th+ Flux IC50. The method, then:
Solutions and reagents: Thallium flux assay was performed using FluxOR kit (F10017, Life Technologies). Loading buffer, assay buffer and stimulus buffer were prepared using kit components. HBSS (Hank's balanced salt solution, Cat #14025-092) was purchased separately from Life Technologies.
To prepare 10 ml of loading buffer: 10 μl of FluxOR dye (reconstituted in DMSO) was first added to 100 μl of powerload concentrate and this mix along with 100 μl of Probenicid (100×) was then added to 9.79 ml of HBSS. Assay buffer (10 ml) was prepared by addition of 2 ml of FluxOR chloride free buffer (5×), 100 μl of Probenicid (100×), and 0.2 ml of Ouabain (13.77 mM) to 7.7 ml of deionized water. Stimulus buffer was composed of 15 mM Tl2SO4, 0.75 mM K2SO4 in FluxOR chloride free buffer (diluted to 1× using deionized water). The final concentration of Tl2SO4 and K2SO4 in the assay plate was 3 mM and 0.15 mM, respectively.
Plating and induction of cells: The CHO T-Rex hROMK (human Kir1.1) stable cell line was maintained in Ham's F12 media supplemented with 10% FBS, 1% Penicillin-Streptomycin, 500 μg/ml Zeocin and 10 μg/ml Blasticidin at 37° C. in a 5% CO2 incubator. One day before the experiment, the cells were dissociated by incubation with Versene solution (15040-066, Life Technologies) for 10 minutes at 37° C. followed by addition of growth media. The cell suspension was centrifuged at 1200 rpm for 5 min. After discarding the supernatant, the cells were resuspended in fresh growth media and cell concentration was determined using a hemocytometer. Next, 0.5 μg/ml of Doxycycline was added to the cell suspension to induce hROMK channel expression and 50 μl (10,000 cells/well) of cell suspension was added to each well of a poly-D lysine coated 384 well black, optically clear bottom plate (6007718, Perkin Elmer). The assay plate was kept at 37° C. in a 5% CO2 incubator.
Assay protocol: On the day of experiment, media was removed and loading buffer was added (30 μl/well) to the assay plate. The cells were incubated in the loading buffer for 30 minutes at 37° C. The loading buffer was then replaced by assay buffer (30 μl/well) followed by addition of test compounds or controls. The cells were incubated with compounds for 30 minutes and the plate was then mounted on FlexStation (Molecular Devices) for fluorescence read out with excitation and emission wavelengths at 488 and 525 nm, respectively. Each well was read for 90 sec at 2 sec interval and the stimulus buffer was added after 20 seconds of baseline recording. The final DMSO concentration was either 0.5 or 1% in the assay plate. […] controls were defined by addition of DMSO or 3 μM of a standard ROMK inhibitor, respectively, to the wells instead of a test compound.
A 10-point concentration response curve was used to estimate the IC50 value of test compounds.
The data in Table 3 is reported with two significant figures.
A word on the IC50: it is the concentration that gives 50% inhibition. Regarding `Cc1c(C(O)CN2CCc3nc(-n4cnc5cccnc54)ncc3C2)ccc2c1COC2=O` (single isomer, unassigned) [Example 55-I, 5-(2-(2-(3H-imidazo[4,5-b]pyridin-3-yl)-7,8-dihydropyrido[4,3-d]pyrimidin-6(5H)-yl)-1-hydroxyethyl)-4-methylisobenzofuran-1(3H)-one], the IC50 was determined as 1490 nM.

On to `Cc1c(C(CO)N2CCc3nc(-n4cc(C#N)c5ccccc54)ncc3C2)ccc2c1COC2=O` (single isomer, unassigned) [Example 9-I, 1-(6-(2-hydroxy-1-(4-methyl-1-oxo-1,3-dihydroisobenzofuran-5-yl)ethyl)-5,6,7,8-tetrahydropyrido[4,3-d]pyrimidin-2-yl)-1H-indole-3-carbonitrile], for which the IC50 amounted to 3000 nM.

For the compound `N#Cc1ccc2c(ccn2-c2ncc3c(n2)CCN(CC(O)c2ccc4c(c2)COC4=O)C3)c1` (single isomer, unassigned) [Example 17-I, 1-(6-(2-hydroxy-2-(1-oxo-1,3-dihydro-isobenzofuran-5-yl)ethyl)-5,6,7,8-tetrahydropyrido[4,3-d]pyrimidin-2-yl)-1H-indole-5-carbonitrile], the IC50 turned out to be 340 nM.

On to `Cc1c(CCN2CCc3nc(Nc4ccc(C#N)c(F)c4)ncc3C2)ccc2c1COC2=O` [Example 27, 2-fluoro-4-((6-(2-(4-methyl-1-oxo-1,3-dihydroisobenzofuran-5-yl)ethyl)-5,6,7,8-tetrahydropyrido[4,3-d]pyrimidin-2-yl)amino) benzonitrile], for which the IC50 was found to be 200 nM.

On to `Cn1c(=O)oc2ccc(C(O)CN3CCc4nc(-n5ncc6c(C#N)cccc65)ncc4C3)cc21` (single isomer, unassigned) [Example 3-II, 1-(6-(2-hydroxy-2-(3-methyl-2-oxo-2,3-dihydrobenzo[d]oxazol-5-yl)ethyl)-5,6,7,8-tetrahydropyrido[4,3-d]pyrimidin-2-yl)-1H-indazole-4-carbonitrile], for which the half-maximal inhibitory concentration (IC50) stood at 1600 nM.

Regarding `Cc1c(C(O)CN2CCc3nc(-n4ncc5cc(C#N)ccc54)ncc3C2)ccc2c1COC2=O` (single isomer, unassigned) [Example 50, 1-(6-(2-hydroxy-2-(4-methyl-1-oxo-1,3-dihydroisobenzofuran-5-yl)ethyl)-5,6,7,8-tetrahydropyrido[4,3-d]pyrimidin-2-yl)-1H-indazole-5-carbonitrile], the IC50 was 700 nM.

Take `Cc1c(C(CO)N2CCc3nc(-n4ccc5cc(C#N)cnc54)ncc3C2)ccc2c1COC2=O` (single isomer, unassigned) [Example 45-I, 1-(6-(2-hydroxy-1-(4-methyl-1-oxo-1,3-dihydroisobenzofuran-5-yl)ethyl)-5,6,7,8-tetrahydropyrido[4,3-d]pyrimidin-2-yl)-1H-pyrrolo[2,3-b]pyridine-5-carbonitrile]: the IC50 is 4700 nM.

As to `Cc1c(CN2CCc3nc(-n4ccc5cc(C#N)ccc54)ncc3C2)ccc2c1COC2=O` [Example 21, 1-(6-((4-methyl-1-oxo-1,3-dihydro-isobenzofuran-5-yl)methyl)-5,6,7,8-tetrahydropyrido[4,3-d]pyrimidin-2-yl)-1H-indole-5-carbonitrile], the IC50 is 3200 nM.

Regarding `CCOC(=O)c1cnc2cnn(-c3ncc4c(n3)CCN(CC(O)c3ccc5c(c3C)COC5=O)C4)c2c1` (single isomer, unassigned) [Example 51-I, ethyl 1-(6-(2-hydroxy-2-(4-methyl-1-oxo-1,3-dihydroisobenzofuran-5-yl)ethyl)-5,6,7,8-tetrahydropyrido[4,3-d]pyrimidin-2-yl)-1H-pyrazolo[4,3-b]pyridine-6-carboxylate], the IC50 was 495 nM.

In the case of `Cc1c(C(CO)N2CCc3nc(-n4cc(C#N)c5ccccc54)ncc3C2)ccc2c1COC2=O` (single isomer, unassigned) [Example 9-II, 1-(6-(2-hydroxy-1-(4-methyl-1-oxo-1,3-dihydroisobenzofuran-5-yl)ethyl)-5,6,7,8-tetrahydropyrido[4,3-d]pyrimidin-2-yl)-1H-indole-3-carbonitrile], the IC50 amounted to 1800 nM.

Turning to `Cc1c(CN2CCc3cc(Nc4ccc(C#N)c(F)c4)ccc3C2)ccc2c1COC2=O` [Example 30, 2-fluoro-4-((2-((4-methyl-1-oxo-1,3-dihydroisobenzofuran-5-yl)methyl)-1,2,3,4-tetrahydroisoquinolin-6-yl)amino)benzonitrile], the IC50 was found to be 810 nM.

Turning to `Cc1c(CN2CCc3cc(Nc4ccc5oc(=O)n(C)c5c4)ccc3C2)ccc2c1COC2=O` [Example 14, 3-methyl-5-((2-((4-methyl-1-oxo-1,3-dihydroisobenzofuran-5-yl)methyl)-1,2,3,4-tetrahydroisoquinolin-6-yl)amino)benzo[d]oxazol-2(3H)-one], the IC50 was determined as 320 nM.

Regarding `Cc1c(C(O)CN2CCc3nc(Nc4ccc(-n5cnnn5)cn4)ncc3C2)ccc2c1COC2=O` (single isomer, unassigned) [Example 63-I, 5-(2-(2-((5-(1H-tetrazol-1-yl)pyridine-2-yl)amino)-7,8-dihydropyrido[4,3-d]pyrimidin-6(5H)-yl)-1-hydroxyethyl)-4-methylisobenzofuran-1(3H)-one], the IC50 was determined as 1240 nM.

Regarding `Cc1c(C(O)CN2CCc3nc(-n4ncc5c(C#N)cccc54)ncc3C2)ccc2c1COC2=O` (single isomer, unassigned) [Example 12-II, 1-(6-(2-hydroxy-2-(4-methyl-1-oxo-1,3-dihydroisobenzofuran-5-yl)ethyl)-5,6,7,8-tetrahydropyrido[4,3-d]pyrimidin-2-yl)-1H-indazole-4-carbonitrile], the IC50 turned out to be 410 nM.

With `Cc1c(CN2CCc3nc(Nc4ccc5oc(=O)n(C)c5c4)ncc3C2)ccc2c1COC2=O` [Example 49, 3-methyl-5-((6-((4-methyl-1-oxo-1,3-dihydroisobenzofuran-5-yl)methyl)-5,6,7,8-tetrahydropyrido[4,3-d]pyrimidin-2-yl)amino) benzo[d]oxazol-2(3H)-one], the IC50 is 1800 nM.

Consider `Cc1c(CN2CCc3nc(N(C)c4ccc(C#N)c(F)c4)ncc3C2)ccc2c1COC2=O` [Example 47, 2-fluoro-4-(methyl(6-((4-methyl-1-oxo-1,3-dihydroisobenzofuran-5-yl)methyl)-5,6,7,8-tetrahydropyrido[4,3-d]pyrimidin-2-yl)amino) benzonitrile], for which the IC50 was 1900 nM.

Take `COC(=O)c1cnc2ccn(-c3ncc4c(n3)CCN(CC(O)c3ccc5c(c3C)COC5=O)C4)c2c1` (single isomer, unassigned) [Example 52-I, methyl 1-(6-(2-hydroxy-2-(4-methyl-1-oxo-1,3-dihydroisobenzofuran-5-yl)ethyl)-5,6,7,8-tetrahydropyrido[4,3-d]pyrimidin-2-yl)-1H-pyrrolo[3,2-b]pyridine-6-carboxylate]: the IC50 was 1240 nM.

In the case of `Cc1c(CN2Cc3cnc(Nc4ccc(C#N)c(F)c4)nc3CC2CO)ccc2c1COC2=O` (stereo not drawn) [Example 57-II, 2-fluoro-4-((7-(hydroxymethyl)-6-((4-methyl-1-oxo-1,3-dihydroisobenzo-furan-5-yl)methyl)-5,6,7,8-tetrahydro-pyrido[4,3-d]pyrimidin-2-yl)amino) benzonitrile], the IC50 was found to be 679 nM.

With `Cc1c(CN2CCc3nc(-n4ncc5cc(C#N)ccc54)ncc3C2)ccc2c1COC2=O` [Example 13, 1-(6-((4-methyl-1-oxo-1,3-dihydro-isobenzofuran-5-yl)methyl)-5,6,7,8-tetrahydropyrido[4,3-d]pyrimidin-2-yl)-1H-indazole-5-carbonitrile], the IC50 was found to be 750 nM.

For the compound `N#Cc1ccc2c(cnn2-c2ncc3c(n2)CCN(Cc2ccc4c(c2)COC4=O)C3)c1` [Example 11, 1-(6-((1-oxo-1,3-dihydroisobenzofuran-5-yl)methyl)-5,6,7,8-tetrahydropyrido[4,3-d]pyrimidin-2-yl)-1H-indazole-5-carbonitrile], the IC50 came to 1200 nM.

As to `N#Cc1ccc(Nc2ncc3c(n2)CCN(Cc2ccc4c(c2)COC4=O)C3)cc1F` [Example 2], the IC50 turned out to be 960 nM.
